In ChEMBL document CHEMBL4392848, “Proline-based hydroxamates targeting the zinc-dependent deacetylase LpxC: Synthesis, antibacterial properties, and docking studies” (Bioorg Med Chem, 2019):
≈ marks a conversion by molar mass, not a printed value.

Legend:
Escherichia coli [1] = test: Antibacterial activity against Escherichia coli BL21(DE3) measured after 20 hrs by microdilution method; assay type: functional
Klebsiella oxytoca = test: Antibacterial activity against Klebsiella oxytoca assessed as diameter of inhibition zone measured after 24 hrs by agar disc diffusion method; assay type: functional
Enterobacter cloacae = test: Antibacterial activity against Enterobacter cloacae assessed as diameter of inhibition zone measured after 24 hrs by agar disc diffusion method; assay type: functional
Proteus vulgaris = test: Antibacterial activity against Proteus vulgaris assessed as diameter of inhibition zone measured after 24 hrs by agar disc diffusion method; assay type: functional
Citrobacter freundii = test: Antibacterial activity against Citrobacter freundii assessed as diameter of inhibition zone measured after 24 hrs by agar disc diffusion method; assay type: functional
Pseudomonas aeruginosa = test: Antibacterial activity against Pseudomonas aeruginosa assessed as diameter of inhibition zone measured after 24 hrs by agar disc diffusion method; assay type: functional
Escherichia coli [2] = test: Antibacterial activity against Escherichia coli D22 measured after 20 hrs by microdilution method; assay type: functional; details: D22, 20 h
Escherichia coli [3] = test: Antibacterial activity against Escherichia coli D22 assessed as diameter of inhibition zone measured after overnight incubation by agar disc diffusion method; assay type: functional
Klebsiella aerogenes = test: Antibacterial activity against Enterobacter aerogenes assessed as diameter of inhibition zone measured after 24 hrs by agar disc diffusion method; assay type: functional
Klebsiella pneumoniae = test: Antibacterial activity against Klebsiella pneumoniae assessed as diameter of inhibition zone measured after 24 hrs by agar disc diffusion method; assay type: functional
Proteus mirabilis = test: Antibacterial activity against Proteus mirabilis assessed as diameter of inhibition zone measured after 24 hrs by agar disc diffusion method; assay type: functional
Escherichia coli [4] = test: Antibacterial activity against Escherichia coli BL21(DE3) assessed as diameter of inhibition zone measured after overnight incubation by agar disc diffusion method; assay type: functional
[5] = Inhibition of Escherichia coli LpxC C63A mutant using UDP-3-O-[(R)-3-hydroxymyristoyl]-N-acetylglucosamine as substrate measured after 30 mins by fluorescence based microplate assay

MIC (Escherichia coli [1]) | MIC (Escherichia coli [2]) | IC50 [5] | SMILES | diameter of the inhibition zone (DIZ) (Klebsiella oxytoca) | diameter of the inhibition zone (DIZ) (Enterobacter cloacae) | diameter of the inhibition zone (DIZ) (Proteus vulgaris) | diameter of the inhibition zone (DIZ) (Citrobacter freundii) | diameter of the inhibition zone (DIZ) (Pseudomonas aeruginosa) | diameter of the inhibition zone (DIZ) (Escherichia coli [3]) | diameter of the inhibition zone (DIZ) (Klebsiella aerogenes) | diameter of the inhibition zone (DIZ) (Klebsiella pneumoniae) | diameter of the inhibition zone (DIZ) (Proteus mirabilis) | diameter of the inhibition zone (DIZ) (Escherichia coli [4]) | Ki [5]
> 256 µM | 128 µM (≈ 48.7 µg/mL) |  | COc1ccc(C#Cc2ccc(C(=O)N3C[C@@H](O)C[C@H]3C(=O)NO)cc2)cc1 | 7 mm | 8 mm | 9 mm | 8 mm | <6 mm | <6 mm | <6 mm | <6 mm | <6 mm | <6 mm | 
> 256 µM | 64 µM (≈ 24.3 µg/mL) |  | COc1ccc(C#Cc2ccc(C(=O)N3C[C@H](O)C[C@H]3C(=O)NO)cc2)cc1 | 7 mm | <6 mm | 8 mm | 7 mm | <6 mm | 9.7 mm | <6 mm | <6 mm | 7 mm | <6 mm | 
> 256 µM | 256 µM (≈ 94.3 µg/mL) | > 200 µM | O=C(NO)[C@@H]1C[C@@H](O)CN1C(=O)c1ccc(C#Cc2ccc(F)cc2)cc1 |  |  |  |  |  | 10.7 mm |  |  |  | <6 mm | > 27.6 µM
> 256 µM | 128 µM (≈ 46.8 µg/mL) |  | Nc1ccc(C#Cc2ccc(C(=O)N3C[C@@H](O)C[C@H]3C(=O)NO)cc2)cc1 | 8 mm | <6 mm | <6 mm | <6 mm | <6 mm | 13 mm | <6 mm | <6 mm | 8 mm | <6 mm | 
256 µM (≈ 101 µg/mL) | 32 µM (≈ 12.6 µg/mL) |  | CN(C)c1ccc(C#Cc2ccc(C(=O)N3C[C@H](O)C[C@H]3C(=O)NO)cc2)cc1 | 8 mm | <6 mm | <6 mm | 8 mm | <6 mm | 14 mm | 10 mm | 7 mm | 8 mm | <6 mm | 
> 256 µM | 128 µM (≈ 44.8 µg/mL) | 103 µM | O=C(NO)[C@@H]1C[C@@H](O)CN1C(=O)c1ccc(C#Cc2ccccc2)cc1 |  |  |  |  |  | 14 mm |  |  |  | <6 mm | 14.2 µM
> 256 µM | 128 µM (≈ 46.8 µg/mL) |  | Nc1ccc(C#Cc2ccc(C(=O)N3C[C@H](O)C[C@H]3C(=O)NO)cc2)cc1 | 7 mm | <6 mm | <6 mm | <6 mm | <6 mm | 12.3 mm | <6 mm | <6 mm | 7 mm | <6 mm | 

Second part, the molecule before the results:

SMILES | MIC (Escherichia coli [1]) | MIC (Escherichia coli [2]) | IC50 [5] | diameter of the inhibition zone (DIZ) (Klebsiella oxytoca) | diameter of the inhibition zone (DIZ) (Enterobacter cloacae) | diameter of the inhibition zone (DIZ) (Proteus vulgaris) | diameter of the inhibition zone (DIZ) (Citrobacter freundii) | diameter of the inhibition zone (DIZ) (Pseudomonas aeruginosa) | diameter of the inhibition zone (DIZ) (Escherichia coli [3]) | diameter of the inhibition zone (DIZ) (Klebsiella aerogenes) | diameter of the inhibition zone (DIZ) (Klebsiella pneumoniae) | diameter of the inhibition zone (DIZ) (Proteus mirabilis) | diameter of the inhibition zone (DIZ) (Escherichia coli [4]) | Ki [5]
O=C(NO)[C@@H]1C[C@H](O)[C@H](c2ccc(C#Cc3ccc(CN4CCOCC4)cc3)cc2)O1 | > 256 µM | 16 µM (≈ 6.76 µg/mL) | 87 µM |  |  |  |  |  | 15.3 mm |  |  |  | <6 mm | 12 µM
O=C(NO)[C@@H]1C[C@H](O)CN1C(=O)c1ccc(C#Cc2ccc(CN3CCCCC3)cc2)cc1 | > 256 µM | 32 µM (≈ 14.3 µg/mL) | 54.5 µM | 9 mm | <6 mm | 13 mm | 9 mm | <6 mm | 19.2 mm | 10 mm | 9 mm | 11 mm | <6 mm | 7.5 µM
N[C@H]1C[C@@H](C(=O)NO)N(C(=O)c2ccc(C#Cc3ccccc3)cc2)C1 | > 256 µM | 128 µM (≈ 44.7 µg/mL) |  | 7 mm | 7 mm | <6 mm | 7 mm | 7 mm | 12.3 mm | 7 mm | 7 mm | 8 mm | 7.5 mm | 
O=C(NO)[C@@H]1CCCN1C(=O)c1ccc(C#Cc2ccccc2)cc1 | > 256 µM | 128 µM (≈ 42.8 µg/mL) | > 200 µM | 8 mm | 8 mm | 7 mm | 8 mm | <6 mm | 12 mm | <6 mm | <6 mm | <6 mm | <6 mm | > 27.6 µM
O=C(NO)[C@@H]1C[C@H](O)CN1C(=O)c1ccc(C#Cc2ccc(CN3CCCC3)cc2)cc1 | > 256 µM | 64 µM (≈ 27.7 µg/mL) | > 200 µM | <6 mm | <6 mm | <6 mm | <6 mm | <6 mm | 14.3 mm | <6 mm | <6 mm | <6 mm | <6 mm | > 27.6 µM
Nc1ccc(C#Cc2ccc(C(=O)N3CCC[C@H]3C(=O)NO)cc2)cc1 | > 256 µM | 128 µM (≈ 44.7 µg/mL) |  | 7 mm | <6 mm | <6 mm | 7 mm | <6 mm | 14.3 mm | <6 mm | <6 mm | <6 mm | 7.5 mm | 
O=C(NO)[C@@H]1C[C@H](O)CN1C(=O)c1ccc(C#Cc2ccc(CN3CCC(O)CC3)cc2)cc1 | 64 µM (≈ 29.7 µg/mL) | 4 µM (≈ 1.85 µg/mL) | 44 µM | <6 mm | <6 mm | <6 mm | <6 mm | <6 mm | 23.7 mm | 9 mm | <6 mm | 11 mm | 15.7 mm | 6.1 µM
O=C(NO)[C@@H]1O[C@@H](c2ccc(C#Cc3ccc(CN4CCOCC4)cc3)cc2)[C@@H](O)[C@H]1O | > 256 µM | 8 µM (≈ 3.51 µg/mL) | 10 µM |  |  |  |  |  | 22.1 mm |  |  |  | <6 mm | 1.4 µM
O=C(NO)[C@H]1O[C@@H](c2ccc(C#Cc3ccc(CN4CCOCC4)cc3)cc2)[C@@H](O)[C@H]1O | > 256 µM | 16 µM (≈ 7.02 µg/mL) | > 200 µM |  |  |  |  |  | 13.2 mm |  |  |  | <6 mm | > 27.6 µM
O=C(NO)[C@@H]1C[C@H](F)CN1Cc1ccc(C#Cc2ccccc2)cc1 | > 256 µM | 128 µM (≈ 43.3 µg/mL) | > 200 µM |  |  |  |  |  | 10.7 mm |  |  |  | <6 mm | > 27.6 µM
CC1(C)O[C@@H]2[C@H](O1)[C@H](c1ccc(C#Cc3ccc(CN4CCOCC4)cc3)cc1)O[C@@H]2C(=O)NO | > 256 µM | 128 µM (≈ 61.3 µg/mL) | > 200 µM |  |  |  |  |  | 14.7 mm |  |  |  | <6 mm | > 27.6 µM
N[C@H]1C[C@@H](C(=O)NO)N(C(=O)c2ccc(C#Cc3ccc(CN4CCOCC4)cc3)cc2)C1 | 256 µM (≈ 115 µg/mL) | 64 µM (≈ 28.7 µg/mL) |  | 13 mm | <6 mm | <6 mm | 8 mm | 10 mm | 20 mm | 11 mm | 9 mm | 7 mm | 7.8 mm | 
O=C(NO)[C@@H]1C[C@H](F)CN1C(=O)c1ccc(C#Cc2ccccc2)cc1 | > 256 µM | 128 µM (≈ 45.1 µg/mL) | 65.9 µM |  |  |  |  |  | 13.3 mm |  |  |  | <6 mm | 9.1 µM
